# Biological target: Prostaglandin G/H synthase 1 (Homo sapiens, UniProt P23219)
# Assay: Biochemical index for Prostaglandin G/H synthase 1 measured as, thromboxane 2 (TXB2) levels following blood coagulation
# Assay type: tissue-based
# Chain of Prostaglandin G/H synthase 1 (P23219 whole entry): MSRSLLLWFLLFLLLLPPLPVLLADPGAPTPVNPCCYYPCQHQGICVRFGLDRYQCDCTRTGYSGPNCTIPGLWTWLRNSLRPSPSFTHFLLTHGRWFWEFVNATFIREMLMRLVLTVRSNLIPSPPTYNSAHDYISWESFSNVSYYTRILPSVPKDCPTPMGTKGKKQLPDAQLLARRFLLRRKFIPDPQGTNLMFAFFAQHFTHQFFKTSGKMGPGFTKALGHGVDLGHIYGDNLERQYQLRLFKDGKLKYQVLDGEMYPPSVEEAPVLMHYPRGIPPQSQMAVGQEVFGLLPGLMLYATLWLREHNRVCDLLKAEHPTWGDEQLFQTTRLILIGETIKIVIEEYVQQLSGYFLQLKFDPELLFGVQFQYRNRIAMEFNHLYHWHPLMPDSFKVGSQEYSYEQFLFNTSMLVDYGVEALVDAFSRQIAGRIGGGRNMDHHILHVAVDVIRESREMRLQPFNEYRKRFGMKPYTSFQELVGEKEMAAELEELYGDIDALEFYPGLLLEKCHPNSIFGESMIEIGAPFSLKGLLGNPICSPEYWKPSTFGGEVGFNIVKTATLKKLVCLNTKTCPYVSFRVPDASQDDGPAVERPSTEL
row,IC50 [µM],SMILES
1,5.28,COc1ccc(N2CC(c3ccc(S(C)(=O)=O)cc3)=C(c3ccc(F)cc3)C2=O)cc1
2,2.68,COc1ccc(C2=C(c3ccc(S(C)(=O)=O)cc3)CN(c3ccccc3)C2=O)cc1
3,3.7,Cc1ccc(N2CC(c3ccc(S(C)(=O)=O)cc3)=C(c3ccc(F)cc3)C2=O)cc1
4,2.5,COc1ccc(C2=C(c3ccc(S(C)(=O)=O)cc3)CN(c3ccc(F)cc3)C2=O)cc1
5,2.5,COc1ccc(C2=C(c3ccc(S(C)(=O)=O)cc3)CN(c3cccc(F)c3)C2=O)cc1
6,10.8,CS(=O)(=O)c1ccc(C2=C(c3ccccc3)C(=O)N(c3ccccc3F)C2)cc1
7,7.2,CS(=O)(=O)c1ccc(C2=C(c3ccc(F)cc3)C(=O)N(c3ccc(C(F)(F)F)cc3)C2)cc1
8,9.8,CS(=O)(=O)c1ccc(C2=C(c3ccccc3)C(=O)N(c3cccc(Cl)c3)C2)cc1
9,2.7,CS(=O)(=O)c1ccc(C2=C(c3ccc(F)cc3)C(=O)N(c3ccccc3)C2)cc1
10,2.5,CS(=O)(=O)c1ccc(C2=C(c3ccc(F)cc3)C(=O)N(c3ccccc3F)C2)cc1
11,5.1,CS(=O)(=O)c1ccc(C2=C(c3ccccc3)C(=O)N(c3ccc(C(F)(F)F)cc3)C2)cc1
12,5.86,CS(=O)(=O)c1ccc(C2=C(c3ccccc3)C(=O)N(c3ccc(F)cc3)C2)cc1
13,6.9,Cc1ccc(N2CC(c3ccc(S(C)(=O)=O)cc3)=C(c3ccccc3)C2=O)cc1
14,2.4,CS(=O)(=O)c1ccc(C2=C(c3ccccc3)C(=O)N(c3ccccc3)C2)cc1
15,8.2,CS(=O)(=O)c1ccc(C2=C(c3ccc(F)c(F)c3)C(=O)N(c3ccccc3)C2)cc1
16,2.3,COc1ccc(C2=C(c3ccc(S(C)(=O)=O)cc3)CN(c3ccccc3Cl)C2=O)cc1
17,4,COc1ccccc1N1CC(c2ccc(S(C)(=O)=O)cc2)=C(c2ccc(F)cc2)C1=O
